Source: patent publication US8871818B2, “Gastrointestinal absorption enhancer mediated by proton-coupled transporter and its preparing method” (Otsuka Pharmaceutical Co., Ltd., priority 2003, dated 2014)

Experiments:
Caco-2 cells = assay: Cellular uptake into Caco-2 cells under various pH conditions (pH profile); type: in vitro ADME, human; conditions: 2 mM, uptake over 15 minutes
Method: To investigate the effect of extracellular fluid on the cellular uptake of dipeptides and β-lactam antibiotics transported by PEPT1, the cellular uptake of dipeptides, i.e., [^14C]glycylsarcosine ([^14C]GlySar) and [^3H]carnosine, and β-lactam antibiotics, i.e., cefadroxil (CDX), cefixime (CFIX), and FK089, was evaluated at pH 5.0 to 7.0 using gastrointestinal tract model cells (Caco-2 cells).
Cells cultured on 4-well plates were rinsed 3 times with 1 mL Hanks' balanced salt solution (HBSS: 0.952 mM CaCl2, 5.36 mM KCl, 0.441 mM KH2PO4, 0.812 mM MgSO4, 136.7 mM NaCl, 0.385 mM Na2HPO4, 25 mM D-glucose, 10 mM HEPES; pH 7.4; osmotic pressure 315 mOs/kg) heated to 37° C., and uptake was initiated by adding 250 μL HBSS containing medical fluid. Uptake was terminated at a predetermined period of time by washing the cells 3 times with 1 mL ice-cooled HBSS. […] The medicaments contained in the solution extracted from the cells were quantified by a liquid scintillation counter or liquid chromatography (HPLC). Proteins contained in the cells were quantified using a protein assay kit (Bio-Rad, Richmond, Calif., USA) according to the Bradford assay (Bradford, M. M. “A Rapid and Sensitive Method for the Quantitation of Microgram Quantities of Protein Utilizing the Principle of Protein-Dye Binding”. Anal. Biochem. 72 (1976): 248-254). […]

rat ileum = assay: Absorption in rat intestinal loop, in situ closed loop method; type: in vivo; conditions: 20 minutes, CDX 1 mM or CFIX 0.5 mM in MES buffer pH 6.0
Method: For example, rats are anesthetized by intraperitoneally administering pentobarbital sodium (50 mg/kg). Then, laparotomy is performed along the median line to expose the intestinal tract, and a loop is formed at the ileum (e.g., FIG. 6). MES buffer containing medical fluid and a polymer (5 mM KCl, 100 mM NaCl, 10 mM 2-(N-morpholino)ethanesulfonic acid (MES), 85 mM mannitol, 0.01% polyethylene glycol; pH 6.0; osmotic pressure 290 mOs/kg) is introduced into the intestinal loop and both ends of the loop are ligated. Subsequently, the intestinal loop is immediately returned to the abdominal cavity. An incandescent lamp is used to maintain the body temperature. The solution inside the intestinal loop is retrieved 20 minutes after its administration. The pH was measured by pH-meter. The amount of medicaments are measured by HPLC.
The oral composition of the invention was prepared by adding a β-lactam antibiotic (CDX or CFIX) to 10 mM MES buffer (pH 6.0) such that the buffer contained CDX in an amount of 1 mM or CFIX in an amount of 0.5 mM, and further adding Eudragit L100-55 to the buffer so that it contained in a proportion of 10 or 20 wt. % based on the amount of the entire oral composition. A β-lactam antibiotic solution containing no Eudragit L100-55 was prepared as a control.
These compositions were administered into the intestinal loops prepared at the caecum junction of SD male rats (junction between the terminal of the ileum and where the caecum starts) to a distance of 14 cm toward the stomach. The solution remaining in the intestinal loops was retrieved 20 minutes after administration. The concentration of β-lactam antibiotic in the retrieved solution was measured by HPLC, and pH of the retrieved solution was measured using a pH meter. Absorbability was evaluated according to the decrease in the concentration of β-lactam antibiotic in the retrieved solution in comparison with the concentration thereof in the solution administered.

[1] = Plasma concentration of CFIX after oral administration to rats with polymer and/or CDX; type: in vivo; conditions: male, SD, rat, CFIX 2.3 mg/kg, polymer 500 mg/kg
Method: To investigate whether absorption of orally-administered peptidergic compounds in rats is improved by controlling gastrointestinal pH using pH-sensitive polymers, the time course of the plasma concentration of CFIX was examined after orally administering the peptidergic compound CFIX in combination with a pH-sensitive polymer (Eudragit L100-55) or pH-insensitive polymer (Eudragit RS PO).
The oral composition of the invention was prepared by adding Eudragit L100-55 to an aqueous solution of CFIX (0.23 mg/mL) such that the solution contained Eudragit L100-55 in a proportion of 5 wt. % based on the amount of the entire oral composition. A CFIX solution containing no Eudragit L100-55 was prepared as a control. These compositions were orally administered to SD male rats (body weight: 190 to 220 g) fasted for an entire day and night such that CFIX was given in a dose of 2.3 mg/kg. Blood was collected 15 to 480 minutes after administration, and the plasma concentration of CFIX was measured by HPLC. Based on the plasma concentration profile of CFIX thus obtained, the area under the plasma drug concentration-time curve (AUC) and highest drug concentration observed in plasma following administration of an extravascular dose (Cmax) were obtained.
Plots (◯) represent absorption of CFIX in the absence of a polymer, plots (●) represent absorption of CFIX in the presence of Eudragit L100-55 (500 mg/kg), and plots (□) represent absorption of CFIX in the presence of Eudragit RS PO (500 mg/kg). Each plot represents the mean±standard error of 5 experiments.
The experimental procedure was as described in Example 4 except that CDX was simultaneously administered.
FIG. 5 depicts the influence of CDX on the oral administration profile of CFIX after administering the composition (CFIX: 2.3 mg/kg) to rats. Plots (●) represent absorption of CFIX when Eudragit L100-55 (500 mg/kg) and 0 mM CDX were used, plots (▴) represent absorption of CFIX when Eudragit L100-55 (500 mg/kg) and 2 mM CDX were used, and plots (▪) represent absorption of CFIX when Eudragit L100-55 (500 mg/kg) and 10 mM CDX were used. […]

Structure (SMILES) | pH of optimum uptake into Caco-2 cells (Caco-2 cells; pH 5.0 to 7.0) | absorption from rat intestinal loop (rat ileum; no Eudragit L100-55) | absorption from rat intestinal loop (rat ileum; with Eudragit L100-55 20 wt. %) | cellular uptake when pH of extracellular fluid is decreased from 6.0 to 5.0 (Caco-2 cells; Caco-2 cells) | Cmax [1] [ng/mL] | Tmax [1] [min] | AUC(0-t) ([1]; read-out: AUC0-8h of CFIX) [ng·h/mL]
CC1=C(C(=O)O)N2C(=O)[C@@H](NC(=O)[C@H](N)c3ccc(O)cc3)[C@H]2SC1 [CDX, cefadroxil] | 6.0 | about 40% | about 80% |  |  |  | 
C=CC1=C(C(=O)O)N2C(=O)[C@@H](NC(=O)/C(=N\OCC(=O)O)c3csc(N)n3)[C@H]2SC1 [CFIX, cefixime] |  | hardly absorbed | about 35% | greatly enhanced | 4130 ± 500 | 43.2 ± 12 | 10800 ± 1480
